Measurements: the NIST ThermoML archive (doi:10.1021/je0201323)

Assay: xn = mol fraction of the nth substance listed
Settings: for mass density: 101.3 kPa, Liquid, vibrating tube; for surface tension liquid-gas: Pendant drop shape

CN(C)C=O [dimethylformamide] + Cc1ccccc1
Settings	mass density [kg/m3]	surface tension liquid-gas [mN/m]
278.15 K, x2 = 0	963	–
278.15 K, x2 = 0.1502	949.1	–
278.15 K, x2 = 0.3	935.7	–
278.15 K, x2 = 0.4492	923.1	–
278.15 K, x2 = 0.5998	911	–
278.15 K, x2 = 0.7548	898.9	–
283.15 K, x2 = 0	958.3	–
283.15 K, x2 = 0.1502	944.4	–
283.15 K, x2 = 0.3	931.1	–
283.15 K, x2 = 0.4492	918.6	–
283.15 K, x2 = 0.5998	906.5	–
283.15 K, x2 = 0.7548	894.5	–
287.81 K, x2 = 0	–	36.96
287.81 K, x2 = 0.1502	–	35.22
287.81 K, x2 = 0.3	–	33.42
287.81 K, x2 = 0.4492	–	32.15
287.81 K, x2 = 0.5998	–	31.2
287.81 K, x2 = 0.7548	–	30.17
288.15 K, x2 = 0	953.7	–
288.15 K, x2 = 0.1502	939.9	–
288.15 K, x2 = 0.3	926.6	–
288.15 K, x2 = 0.4492	914.1	–
288.15 K, x2 = 0.5998	902	–
288.15 K, x2 = 0.7548	890	–
293.15 K, x2 = 0	949.1	–
293.15 K, x2 = 0.1502	935.3	–
293.15 K, x2 = 0.3	922	–
293.15 K, x2 = 0.4492	909.5	–
293.15 K, x2 = 0.5998	897.5	–
293.15 K, x2 = 0.7548	885.5	–
297.82 K, x2 = 0	–	35.83
297.82 K, x2 = 0.1502	–	33.97
297.82 K, x2 = 0.3	–	32.5
297.82 K, x2 = 0.4492	–	31.04
297.82 K, x2 = 0.5998	–	30.04
297.82 K, x2 = 0.7548	–	29.17
298.15 K, x2 = 0	944.5	–
298.15 K, x2 = 0.1502	930.6	–
298.15 K, x2 = 0.3	917.4	–
298.15 K, x2 = 0.4492	905	–
298.15 K, x2 = 0.5998	892.9	–
298.15 K, x2 = 0.7548	880.9	–
303.15 K, x2 = 0	939.9	–
303.15 K, x2 = 0.1502	926.1	–
303.15 K, x2 = 0.3	912.9	–
303.15 K, x2 = 0.4492	900.4	–
303.15 K, x2 = 0.5998	888.4	–
303.15 K, x2 = 0.7548	876.4	–
307.86 K, x2 = 0	–	34.65
307.86 K, x2 = 0.1502	–	32.84
307.86 K, x2 = 0.3	–	31.2
307.86 K, x2 = 0.4492	–	29.86
307.86 K, x2 = 0.5998	–	28.98
307.86 K, x2 = 0.7548	–	28.06
308.15 K, x2 = 0	935.4	–
308.15 K, x2 = 0.1502	921.5	–
308.15 K, x2 = 0.3	908.3	–
308.15 K, x2 = 0.4492	895.9	–
308.15 K, x2 = 0.5998	883.8	–
308.15 K, x2 = 0.7548	871.8	–
313.15 K, x2 = 0	930.9	–
313.15 K, x2 = 0.1502	917	–
313.15 K, x2 = 0.3	903.8	–
313.15 K, x2 = 0.4492	891.3	–
313.15 K, x2 = 0.5998	879.2	–
313.15 K, x2 = 0.7548	867.2	–
317.86 K, x2 = 0	–	33.37
317.86 K, x2 = 0.1502	–	31.7
317.86 K, x2 = 0.3	–	30.21
317.86 K, x2 = 0.4492	–	28.77
317.86 K, x2 = 0.5998	–	27.61
317.86 K, x2 = 0.7548	–	26.85
318.15 K, x2 = 0	926.3	–
318.15 K, x2 = 0.1502	912.4	–
318.15 K, x2 = 0.3	899.2	–
318.15 K, x2 = 0.4492	886.7	–
318.15 K, x2 = 0.5998	874.6	–
318.15 K, x2 = 0.7548	862.5	–
323.15 K, x2 = 0	921.7	–
323.15 K, x2 = 0.1502	907.8	–
323.15 K, x2 = 0.3	894.6	–
323.15 K, x2 = 0.4492	882	–
323.15 K, x2 = 0.5998	869.9	–
323.15 K, x2 = 0.7548	857.9	–
327.88 K, x2 = 0	–	32.03
327.88 K, x2 = 0.1502	–	30.5
327.88 K, x2 = 0.3	–	29.04
327.88 K, x2 = 0.4492	–	27.62
327.88 K, x2 = 0.5998	–	26.59
327.88 K, x2 = 0.7548	–	25.7
328.15 K, x2 = 0	917.9	–
328.15 K, x2 = 0.1502	903.3	–
328.15 K, x2 = 0.3	890.1	–
328.15 K, x2 = 0.4492	877.5	–
328.15 K, x2 = 0.5998	865.3	–
328.15 K, x2 = 0.7548	853.2	–
333.15 K, x2 = 0	913.2	–
333.15 K, x2 = 0.1502	899	–
333.15 K, x2 = 0.3	885.7	–
333.15 K, x2 = 0.4492	873	–
333.15 K, x2 = 0.5998	860.7	–
333.15 K, x2 = 0.7548	848.5	–

Cc1ccccc1 [toluene] + CCCCCCC
Settings	mass density [kg/m3]	surface tension liquid-gas [mN/m]
278.15 K, x2 = 0	880.3	–
278.15 K, x2 = 0.15	843.7	–
278.15 K, x2 = 0.299	811.3	–
278.15 K, x2 = 0.449	782	–
278.15 K, x2 = 0.595	756.4	–
278.15 K, x2 = 0.749	732.6	–
283.15 K, x2 = 0	875.9	–
283.15 K, x2 = 0.15	839.3	–
283.15 K, x2 = 0.299	807	–
283.15 K, x2 = 0.449	777.8	–
283.15 K, x2 = 0.595	752.2	–
283.15 K, x2 = 0.749	728.4	–
287.81 K, x2 = 0	–	28.93
287.81 K, x2 = 0.299	–	24.49
287.81 K, x2 = 0.449	–	23.38
287.81 K, x2 = 0.595	–	22.41
287.81 K, x2 = 0.749	–	21.58
288.15 K, x2 = 0	871.4	–
288.15 K, x2 = 0.15	834.9	–
288.15 K, x2 = 0.299	802.7	–
288.15 K, x2 = 0.449	773.5	–
288.15 K, x2 = 0.595	747.9	–
288.15 K, x2 = 0.749	724.2	–
293.15 K, x2 = 0	866.9	–
293.15 K, x2 = 0.15	830.5	–
293.15 K, x2 = 0.299	798.3	–
293.15 K, x2 = 0.449	769.1	–
293.15 K, x2 = 0.595	743.6	–
293.15 K, x2 = 0.749	719.9	–
297.82 K, x2 = 0	–	27.76
297.82 K, x2 = 0.15	–	25.16
297.82 K, x2 = 0.299	–	23.47
297.82 K, x2 = 0.449	–	22.17
297.82 K, x2 = 0.595	–	21.35
297.82 K, x2 = 0.749	–	20.56
298.15 K, x2 = 0	862.4	–
298.15 K, x2 = 0.15	826	–
298.15 K, x2 = 0.299	794.1	–
298.15 K, x2 = 0.449	764.7	–
298.15 K, x2 = 0.595	739.2	–
298.15 K, x2 = 0.749	715.6	–
303.15 K, x2 = 0	857.8	–
303.15 K, x2 = 0.15	821.5	–
303.15 K, x2 = 0.299	789.4	–
303.15 K, x2 = 0.449	760.3	–
303.15 K, x2 = 0.595	734.8	–
303.15 K, x2 = 0.749	711.2	–
307.86 K, x2 = 0	–	26.6
307.86 K, x2 = 0.15	–	24.08
307.86 K, x2 = 0.299	–	22.42
307.86 K, x2 = 0.449	–	21.23
307.86 K, x2 = 0.595	–	20.31
307.86 K, x2 = 0.749	–	19.62
308.15 K, x2 = 0	853.2	–
308.15 K, x2 = 0.15	817	–
308.15 K, x2 = 0.299	784.9	–
308.15 K, x2 = 0.449	755.8	–
308.15 K, x2 = 0.595	730.4	–
308.15 K, x2 = 0.749	706.8	–
313.15 K, x2 = 0	848.6	–
313.15 K, x2 = 0.15	812.4	–
313.15 K, x2 = 0.299	780.4	–
313.15 K, x2 = 0.449	751.3	–
313.15 K, x2 = 0.595	725.9	–
313.15 K, x2 = 0.749	702.4	–
317.86 K, x2 = 0	–	25.46
317.86 K, x2 = 0.15	–	23.03
317.86 K, x2 = 0.299	–	21.39
317.86 K, x2 = 0.449	–	20.28
317.86 K, x2 = 0.595	–	19.37
317.86 K, x2 = 0.749	–	18.62
318.15 K, x2 = 0	843.9	–
318.15 K, x2 = 0.15	807.8	–
318.15 K, x2 = 0.299	775.8	–
318.15 K, x2 = 0.449	746.8	–
318.15 K, x2 = 0.595	721.4	–
318.15 K, x2 = 0.749	697.9	–
323.15 K, x2 = 0	839.2	–
323.15 K, x2 = 0.15	803.1	–
323.15 K, x2 = 0.299	771.2	–
323.15 K, x2 = 0.449	742.2	–
323.15 K, x2 = 0.595	716.9	–
323.15 K, x2 = 0.749	693.4	–
327.88 K, x2 = 0	–	24.29
327.88 K, x2 = 0.15	–	22.05
327.88 K, x2 = 0.299	–	20.44
327.88 K, x2 = 0.449	–	19.31
327.88 K, x2 = 0.595	–	18.43
327.88 K, x2 = 0.749	–	17.66
328.15 K, x2 = 0	834.5	–
328.15 K, x2 = 0.15	798.5	–
328.15 K, x2 = 0.299	766.5	–
328.15 K, x2 = 0.449	737.6	–
328.15 K, x2 = 0.595	712.3	–
328.15 K, x2 = 0.749	688.8	–
333.15 K, x2 = 0	829.8	–
333.15 K, x2 = 0.15	793.8	–
333.15 K, x2 = 0.299	761.8	–
333.15 K, x2 = 0.449	733	–
333.15 K, x2 = 0.595	707.7	–
333.15 K, x2 = 0.749	684.2	–
